In brackets after ≈: the same amount, converted by molar mass. Several values for one entry are separate records, joined by “and”; a condition that tells them apart may be missing. Identical values can stand only once. Like-named read-outs stand apart in the source and are kept apart here.
Columns and labels:
[1] = tested on: Staphylococcus aureus; experiment: Chequerboard analysis / MIC against Staphylococcus aureus (MRSA cells); type: cell-based
Procedure: Chequerboard analysis was used to determine whether compounds could be combined to decrease the MIC for Staphylococcus aureus, as compared to each individual compound. In the present experiments, combinations of zingerone plus gentamicin, zingerone plus vancomycin, and zingerone plus cefotaxime were tested. For this testing, 96 well plates were inoculated Staphylococcus aureus, and then incubated with the test compounds for 24 hours at 37° C. For zingerone, additions were made at […], 12.5, and 25 mg/ml. For gentamicin, additions were made at 0, 4, 8, 16, 32, 64, 128, and 256 μg/ml. For vancomycin, additions were made at 0, 4, 8, 16, 32, 64, 128, and 256 μg/ml. For cefotaxime, additions were made at 0, 8, 16, 32, 64, 128, 256, and 512 μg/ml. MRSA cells (methicillin-resistant Staphylococcus aureus) were introduced in Mueller Hinton media with 2% NaCl. 10^8 cells per ml were utilised. The FICI index was used to quantify the interaction of the compounds interact employing the following equation: FICI=(MICA^combi/MICA^alone)+ (MICB^combi/MICB^alone). A FICI of ≤0.5 was designated as synergy, and a FICI of >4.0 was defined as antagonism. A FICI of 0.5 to 1.0 was deemed as a significant improvement although not synergistic.

[2] = cited from earlier work
[3] = EFSA 2016; 14 (8): 4557; cited from earlier work
[4] = tested on: Pseudomonas aeruginosa; settings: cited from earlier work
[5] = tested on: liver inflammation; settings: peritonitis mouse model; cited from earlier work
[6] = individual compound, 24 hours at 37° C., MRSA in Mueller Hinton media with 2% NaCl

Compound: CO/N=C(\C(=O)N[C@@H]1C(=O)N2C(C(=O)O)=C(COC(C)=O)CS[C@H]12)c1csc(N)n1 [Cefotaxime, reference compound]
- MIC ([1]; Staphylococcus aureus, individual compound, 24 hours at 37° C., MRSA in Mueller Hinton media with 2% NaCl, read-out: MIC): > 512 µg/mL

Compound: CN[C@H](CC(C)C)C(=O)N[C@H]1C(=O)N[C@@H](CC(N)=O)C(=O)N[C@H]2C(=O)N[C@H]3C(=O)N[C@H](C(=O)N[C@H](C(=O)O)c4cc(O)cc(O)c4-c4cc3ccc4O)[C@H](O)c3ccc(c(Cl)c3)Oc3cc2cc(c3O[C@@H]2O[C@H](CO)[C@@H](O)[C@H](O)[C@H]2O[C@H]2C[C@](C)(N)[C@H](O)[C@H](C)O2)Oc2ccc(cc2Cl)[C@H]1O [Vancomycin, reference compound]
- MIC ([1]; Staphylococcus aureus, MRSA, 24 h): 8 µg/mL

Compound: COc1cc(CCC(C)=O)ccc1O [Zingerone]
- Log P ([2]; FoodB compounds database): 2.02 and 1.92
- water solubility ([2]; FoodB compounds database): 570 µg/mL (≈ 2930 µM)
- solubility (in words) ([2]; reported): sparingly soluble in water
- No Observed Adverse Effects (NOAEL) dose [3]: 128 mg/kg/day
- effect on susceptibility of cells to antibiotics [4]: enhance the susceptibility
- MIC [1, 6]: 25 mg/g
- MIC ([1]; zingerone in combination with cefotaxime): 25 mg/g
- MIC ([1]; zingerone in combination with gentamicin): 6.25 mg/g
- MIC ([1]; zingerone in combination with vancomycin): 12.5 mg/g
- effect on liver inflammation [5]: anti-inflammatory effect

Compound: Gentamicin [reference compound]
- MIC ([1]; gentamicin in combination with zingerone): 4 µg/mL
- MIC [1, 6]: 16 µg/mL

Reference: US20240351967A1, “METHODS OF PREPARATION OF ZINGERONE, COMPOSITIONS COMPRISING ZINGERONE, AND USES THEREFOR” (Evithe Limited, priority 2021, published 2024)
